# According to the NIST ThermoML archive (doi:10.1021/je300826t):
# Numbers after ± are expanded uncertainties.
# Columns and labels:
# [1] = 298.15 K; 101.33 kPa; Liquid; Vibrating tube method
# [2] = refractive index (Na D-line) (dimensionless); details: 298.15 K; 101.33 kPa; Liquid; Standard Abbe refractometry
Compound,mass density [1] [kg/m3],refractive index [2]
CC1CCCCC1 [methylcyclohexane],765.02 ± 0.24,1.42062 ± 0.0007
C1CCCCC1 [cyclohexane],773.8 ± 0.13,1.4236 ± 0.00068
CCc1ccccc1 [ethylbenzene],862.51 ± 0.11,1.49304 ± 0.00068
CCCCn1cc[n+](C)c1.COS(=O)(=O)[O-] [1-butyl-3-methylimidazolium methyl sulfate],1212.59 ± 0.41,1.47792 ± 0.0007
c1ccccc1 [benzene],873.57 ± 0.11,1.49774 ± 0.00068
C1CCCCCCC1 [cyclooctane],831.47 ± 0.24,1.45598 ± 0.0007
